The results in this text go back to patent US5077289A (priority 1989, dated 1991).

In assay [1] the test system is Scopolamine Induced Memory Deficit. Nature of the assay: Dark Avoidance Assay (reversal of scopolamine induced memory deficit). The format is in vivo. As to conditions: mice, s.c. How it is done:
In this assay mice are tested for their ability to remember an unpleasant stimulus for a period of 24 hours. A mouse is placed in a chamber that contains a dark compartment; a strong incandescent light drives it to the dark compartment, where an electric shock is administered through metal plates on the floor. The animal is removed from the testing apparatus and tested again, 24 hours later, for the ability to remember the electric shock.
If scopolamine, an anticholinergic that is known to cause memory impairment, is administered before an animal's initial exposure to the test chamber, the animal re-enters the dark compartment shortly after being placed in the test chamber 24 hours later. This effect of scopolamine is blocked by an active test compound, resulting in a greater interval before re-entry into the dark compartment.
The results for an active compound are expressed as the percent of a group of animals in which the effect of scopolamine is blocked, as manifested by an increased interval between being placed in the test chamber and re-entering the dark compartment.

For assay [2], the system named is 2-phenyl-1,4-benzoquinone-induced writhing. As to the kind of experiment: Inhibition of phenylquinone-induced writhing in mice (PQW), analgesic activity. Type of assay: in vivo, mice (male CD-1 Charles River). As to conditions: Mus musculus, sc, read-out: ANALGESIC ACTIVITY, POW (ED50). How it is done: Compounds I of the present invention are also useful as analgesic agents due to their ability to alleviate pain in mammals. […] Exptl. Biol. Med., 95, 729 (1957)].
A 0.125% concentration of phenyl-p-benzoquinone in a 5% aqueous solution of ethyl alcohol is administered to mice (10 mL/kg, ip). This produces a characteristic "writhe" which is defined as an inward rotation of one or more feet with twisting and turning of the trunk, drawing in of the abdominal wall, lordosis, and arching of the back. A total of 28 male CD-1 Charles River mice (18-30 g) are employed for a time-response. Animals receive food and water ad libitum during their stay in the animal quarters prior to testing. Compounds are tested at 20 mg/kg, sc and are prepared with distilled water, and if insoluble one drop of Tween-80, a surfactant is added. Compounds are administered in a dosage volume of 10 mL/kg.
Twenty mice (five per group) are administered the test compound at various pretreat time (e.g., 15, 30, 45, and 60 min) prior to phenylquinone injection. Control animals (two per group) receive an equal volume of vehicle. After the administration of phenylquinone, the mice are placed separately into 1-L beakers, and 5 min are allowed to elapse. The mice are then observed for a period of 10 min, and the number of writhers is recorded for each animal. The formula for computing percent inhibition is [formula]
The time period with the maximum percent of inhibition is considered the peak time. A dose-response is reserved for interesting compounds or those which inhibit writhing by 70% or more. A dose-response is run in the same manner as a time-response except 10 animals per group are tested at the peak time of drug activity. Fifty animals, divided among four drug groups and one vehicle control group, are employed. The mice are normally given four doses of drug, each twice the amount of the preceding dose. An ED50 is calculated by a computer linear regression analysis.
Results of this assay for some of the compounds of this invention and eseroline salicylate (reference compound) are shown in Table 3.

Assay [3] concerns the target T1, Brain AChE (Rattus norvegicus, UniProt P37136).
T1 construct: brains rapidly removed, corpora striata dissected free, weighed and homogenized in 19 volumes; from tissue; host or cells: corpus striatum homogenate of male Wistar rats
T1 sequence (P37136 32-614): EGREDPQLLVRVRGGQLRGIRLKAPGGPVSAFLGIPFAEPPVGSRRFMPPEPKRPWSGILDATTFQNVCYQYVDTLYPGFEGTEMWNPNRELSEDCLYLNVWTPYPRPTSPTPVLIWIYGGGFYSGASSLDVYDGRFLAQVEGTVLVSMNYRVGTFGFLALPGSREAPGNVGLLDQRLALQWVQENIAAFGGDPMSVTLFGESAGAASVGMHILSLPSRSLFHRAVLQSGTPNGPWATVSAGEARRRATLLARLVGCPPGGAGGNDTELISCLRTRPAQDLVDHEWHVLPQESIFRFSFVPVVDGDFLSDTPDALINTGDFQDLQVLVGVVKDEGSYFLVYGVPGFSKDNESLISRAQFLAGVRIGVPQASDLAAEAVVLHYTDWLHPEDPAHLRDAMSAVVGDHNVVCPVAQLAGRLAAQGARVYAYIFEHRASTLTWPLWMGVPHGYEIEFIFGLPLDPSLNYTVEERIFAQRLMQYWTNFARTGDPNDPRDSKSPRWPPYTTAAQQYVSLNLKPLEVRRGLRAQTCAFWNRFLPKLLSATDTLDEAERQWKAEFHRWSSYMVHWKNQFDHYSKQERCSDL
Nature of the assay: In vitro inhibition of acetylcholinesterase activity in rat striatum (modified Ellman). The format is biochemical, rat (male Wistar). The method, then: Cholinesterases are found throughout the body, both in the brain and in serum. However, only brain acetylcholinesterase (AChE) distribution is correlated with central cholinergic innervation.
This is a modification of the method of Ellman et al., Biochem. Pharmacol. 7, 98 (1961).
1. 0.05M Phosphate buffer, pH 7.2
(a) 6.85 g NaH2 PO4 .cndot.H2 O/100 ml distilled H2 O
(c) add (a) to (b) until pH reaches 7.2
(a) 9.9 mg 5,5-dithiobisnitrobenzoic acid (DTNB) (0.25 mM)
(c) q.s. to 100 ml with 0.05M phosphate buffer, pH 7.2 (reagent 1)
3. For most assays, a […] stock solution of the test drug is made up in a suitable solvent and serially diluted such that the final concentration in the preincubation step ranges from 10^-3 to 10^-6 M. Different concentrations may be used depending on the potency of the drug. […]
Following the 10 minute preincubation of the tissue (enzyme) with the inhibitor, the samples are mixed with the substrate chromogen buffer by the ABA-100. Using the indicated instrument settings the ABA-100 automatically reads the color reaction and prints out the results in enzyme units after 15 minutes.
2. The enzyme activity can also be measured with a Gilford 250 spectrophotometer. […]
The uninhibited activity of the enzyme (tissue homogenate) is first determined. […] The reaction rate is determined by the slope of the recorded absorbance change. […]

Counter-ions that a name gives are not always drawn. Like-named read-outs stand apart in the source and are kept apart here.

Regarding `CCCNC(=O)N(CCC)C(=O)Oc1ccc2c(c1)[C@]1(C)CCN(C)[C@@H]1N2C` [Example 4, (3aS-cis)-1,2,3,3a,8,8a-Hexahydro-1,3a,8-trimethylpyrrolo[2,3-b]indol-5-yl propyl[(propylamino)carbonyl] carbamate oxalate], the “% of Animals with Scopolamine Induced Memory Deficit Reversal” value (from here on “% of Animals”) in assay [1] (0.16 mg/kg of body weight) is on record as 40%; in assay [1] (2.50 mg/kg of body weight) it was 36%. For `CNC(=O)Oc1ccc2c(c1)[C@]1(C)CCN(C)[C@@H]1N2C` [Physostigmine, reference compound], in assay [1] (0.31 mg/kg of body weight), the “% of Animals” value amounted to 20%. With `CN1CC[C@@]2(C)c3cc(O)ccc3N(C)[C@@H]12` [Eseroline Salicylate, reference compound], in assay [2] (mice, s.c., ED50 by linear regression per method, at peak time), the median effective dose (ED50) turned out to be 0.52 mg/kg. As for `CNC(=O)N(C)C(=O)Oc1cc(C)c2c(c1)[C@]1(C)CCN(C)[C@@H]1N2C` [Example 2, (3aS-cis)-1,2,3,3a,8,8a-Hexahydro-1,3a,7,8-tetramethylpyrrolo[2,3-b]indol-5-yl methyl[(methylamino)carbonyl] carbamate], in assay [2], the median effective dose (ED50) was 0.81 mg/kg. For `CN(C(=O)Nc1cccc(Cl)c1)C(=O)Oc1ccc2c(c1)[C@]1(C)CCN(C)[C@@H]1N2C` [Example 5, (3aS-cis)-1,2,3,3a,8,8a-Hexahydro-1,3a,8-trimethylpyrrolo[2,3-b]indol-5-yl methyl[[(3-chlorophenyl)amino]carbonyl] carbamate], in assay [3], the IC50 came to 207 nM. Also, the 50% effective dose (ED50) in assay [2] turned out to be 0.15 mg/kg. For the molecule `CNC(=O)N(C)C(=O)Oc1ccc2c(c1)[C@]1(C)CCN(C)[C@@H]1N2C` [Example 1, (3aS-cis)-1,2,3,3a,8,8a-Hexahydro-1,3a,8-trimethylpyrrolo[2,3-b]indol-5-yl methyl[(methylamino)carbonyl] carbamate], the ED50 in assay [2] was 8 mg/kg. Also, the “% of Animals” value in assay [1] (0.16 mg/kg of body weight) is 20%.
